In US20230075822A1, “USE OF CASTALAGIN OR ANALOGS THEREOF FOR ANTI-CANCER EFFICACY AND TO INCREASE THE RESPONSE TO IMMUNE CHECKPOINT INHIBITORS” (THE ROYAL INSTITUTION FOR THE ADVANCEMENT OF …, priority 2020, published 2023):

Tested on: MCA-205 sarcoma
Assay: Subcutaneous MCA-205 sarcoma tumor model (anti-PD-1 sensitive), SPF-reared mice
Format: in vivo, C57BL/6 mice
Settings: 0.85 mg/kg per mouse daily oral gavage; in contrast to castalagin
Method: FIG. 1A is a schematic of the protocol used to study the effect of a Camu camu extract (CC) alone and additive effect when combined to anti-PD-1 therapy in a murine tumor model sensitive to anti-PD-1 therapy. Syngeneic C57BL/6 mice were implanted with 0.8×10^6 MCA-205 sarcoma, subcutaneously and treated intraperitoneally (i.p.) when tumors reached 20 to 35 mm^2 in size with anti-PD-1 mAb (250 μg/mouse; clone RMP1-14,) or isotype control (clone 2A3) with or without daily oral gavage with 200 mg/kg of [NT] Powder from SunFood). Murine studies. All animal studies were approved by the Institutional Animal Care Committee (CIPA) and carried out in compliance with the Canadian Council on Animal Care guidelines. Murine experiments were conducted using seven-week-old female C57BL/6 mice, obtained from Charles River, Canada. Germ-free female C57BL/6 mice were purchased from the International Microbiome Centre Germ-Free Facility (University of Calgary, Canada) and maintained at the CR-CHUM Germ-Free Facility. Cell culture, reagents and tumor cell lines. MCA-205 fibrosarcoma cells and E0771 mammary adenocarcinoma cells, class I MHC H-2b syngeneic cell lines for C57BL/6 mice, were used for this study. MCA-205 cells were cultured at 37° C. in the presence of 5% CO2 in Roswell Park Memorial Institute (RPMI) 1640 (Gibco-lnvitrogen) containing 10% Fetal bovine serum (FBS) (Wisent), 2 mM L-glutamine (Wisent), 100 IU/ml penicillin/streptomycin (Wisent), 1 mM sodium pyruvate (Wisent) and MEM non-essential amino acids (Gibco-lnvitrogen). E0771 cells were cultured at 37° C. in the presence of 5% CO2 in Dulbecco's Modified Eagle's Medium (DMEM) (Gibco-lnvitrogen) containing 10% FBS (Wisent), 2 mM L-glutamine, 100 IU/ml penicillin/streptomycin (Wisent), 1 mM sodium pyruvate (Wisent). Subcutaneous model of MCA-205 sarcoma and E0771 breast cancer. Syngeneic C57BL/6 mice were implanted with 0.8×10^6 MCA-205 or 0.5×10^6 E0771 subcutaneously. When tumors reached 20 to 35 mm^2 in size, mice were treated four times (or two times for flow cytometry analysis, see section below) intraperitoneally (i.p.) every three day with anti-PD-1 monoclonal antibody (mAb) (250 μg/mouse; clone RMP1-14, BioXcell) or isotype control (clone 2A3, BioXcell). Upon treatment initiation, mice received a daily oral gavage with the following products: Myrciaria dubia, [NT] raw extract (Sunfood) (200 mg/kg per mouse), fractions from the extraction round 1 (P, INT, NP, Insol) (40.18 mg/kg per mouse), fractions from the extraction round 2 (P1, P2, P3 and P4) (equivalent to fraction P dose of 40.18 mg/kg per mouse), […] (extracted from CC, see isolation process below) (0.85 mg/kg per mouse), ellagic acid (0.85 mg/kg per mouse) (Sigma-Aldrich), urolithin A (0.85 mg/kg per mouse) (Sigma-Aldrich), […] (0.5 mg/kg per mouse) (PhytoProof®, Sigma-Aldrich) and castalagin at different concentration: 1/8, 1/6, 1/4, 1/2 of the standard concentration, at the standard concentration (0.85 mg/kg per mouse), 1.5-fold (1.25 mg/kg per mouse) and three-fold increase concentration (2.55 mg/kg per mouse) (PhytoProof©, Sigma-Aldrich or isolated from food grade oak, see isolation process below). In the control group mice received daily oral gavage with water (100 μL) Tumor area was routinely monitored every three days by means of a caliper. In the depletion experiments, we used the anti-CD8 mAb (150 μg/mouse; clone 53-6.7, BioXcell) or isotype control (clone 2A3, BioXcell.

Structure (SMILES)	antitumor effect (tumor size at sacrifice)
O=c1oc2c(O)c(O)cc3c(=O)oc4c(O)c(O)cc1c4c23 [ellagic acid, reference compound]	no antitumor effects were observed
O=c1oc2cc(O)ccc2c2ccc(O)cc12 [urolithin A, reference compound]	no antitumor effects were observed
O=C1OC[C@H]2OC(=O)c3cc(O)c(O)c(O)c3-c3c(O)c(O)c(O)c4c3C(=O)O[C@H]([C@H]3OC(=O)c5c-4c(O)c(O)c(O)c5[C@H]3O)[C@@H]2OC(=O)c2cc(O)c(O)c(O)c2-c2c1cc(O)c(O)c2O [vescalagin, reference compound]	no antitumor effects were observed
